21 molecules from PubChem BioAssay (NCI) can be followed below.

Where “and” joins values, the source holds several entries; their conditions need not be identical. Equal values may be shown once.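 A five-concentration, 48-hour dose response in 96-well plates underlies each endpoint, interpolated linearly between surrounding concentrations. At the GI50, growth is halved. Definition used: TGI = concentration required for complete inhibition of growth.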

Among the test systems are PC-3 prostate; HCC-2998 colon; SN12C renal; NCI-H23 lung; T-47D breast; HS 578T breast; UACC-62 melanoma; HCT-116 colon; HL-60(TB) leukemia; 786-0 renal.
Experiment in all cases: inhibition of tumour cell growth, NCI panel, 48 h

Take `C=CC(C)(C)/C(=C\CO[Si](C(C)C)(C(C)C)C(C)C)C(=O)N(C)c1ccccc1I`: the TGI is 12.6 µM in the assay with PC-3 prostate; 26 µM in the assay on HCC-2998 colon; 29.7 µM with SN12C renal; 23.6 µM with NCI-H23 lung; 25.3 µM with T-47D breast; 27.1 µM with HS 578T breast. Further, the TGI with UACC-62 melanoma worked out at 28.7 µM; in the assay with HCT-116 colon, 17 µM; in the assay on HL-60(TB) leukemia it was 11.4 µM; in the assay on 786-0 renal it was 27.6 µM.
Regarding `Clc1cc(Cl)nc(Nc2ccc3c(c2)CCC3)n1`, the TGI in the assay with PC-3 prostate was over 100 µM; in the assay with HCC-2998 colon, 30.4 µM; in the assay on SN12C renal it was over 100 µM; in the assay on NCI-H23 lung it was over 100 µM; with T-47D breast, over 100 µM; in the assay with HS 578T breast it was over 100 µM. Moreover, the TGI is over 100 µM in the assay on UACC-62 melanoma, over 100 µM in the assay with HCT-116 colon, 73 µM in the assay on HL-60(TB) leukemia and over 100 µM in the assay with 786-0 renal.
`O=Cc1c2c(cc3c1CC1(C3)Cc3cc4c(c(C=O)c3C1)CCC4)CCC2`: the TGI was over 100 µM with PC-3 prostate; over 100 µM in the assay with HCC-2998 colon; over 100 µM in the assay with SN12C renal; over 100 µM in the assay with NCI-H23 lung; over 100 µM in the assay on T-47D breast; 80.5 µM in the assay on HS 578T breast. In addition, the TGI was 62.3 µM in the assay on UACC-62 melanoma, 33.7 µM in the assay on HCT-116 colon, 55.7 µM in the assay with HL-60(TB) leukemia and over 100 µM in the assay on 786-0 renal.
With `COc1ccc(Cn2c(=O)c(OS(=O)(=O)C(F)(F)F)c(C)c3cc4ccccc4cc32)cc1`, the TGI in the assay on PC-3 prostate, with HCC-2998 colon, with SN12C renal, with NCI-H23 lung, in the assay with T-47D breast and with HS 578T breast was over 100 µM throughout. For the same molecule, the TGI with UACC-62 melanoma, with HCT-116 colon, in the assay with HL-60(TB) leukemia and in the assay with 786-0 renal was over 100 µM in each case.
With `O=C(O)c1c(CC(Cc2ccccc2)C(=O)O)ccc2c1CCC2` (centres undefined), the TGI with PC-3 prostate, in the assay on HCC-2998 colon, with SN12C renal, with NCI-H23 lung, in the assay with T-47D breast and in the assay with HS 578T breast was over 100 µM each time. In addition, the TGI in the assay on UACC-62 melanoma, in the assay on HCT-116 colon, in the assay with HL-60(TB) leukemia and in the assay with 786-0 renal was over 100 µM in each case.
On to `CN1CCC(O)(OC(=O)C(c2ccccc2)C2(O)CCCC2)CC1` (centres undefined), for which the TGI in the assay on PC-3 prostate, in the assay on HCC-2998 colon, in the assay with SN12C renal, in the assay on NCI-H23 lung, in the assay on T-47D breast and with HS 578T breast was over 100 µM throughout. In addition, the TGI in the assay with UACC-62 melanoma, with HCT-116 colon, with HL-60(TB) leukemia and in the assay on 786-0 renal was over 100 µM throughout.
Take `CC(C)(C)c1cc(C(C)(C)C)c(SC2OC(CO)C(O)C(O)C2O)c(O)c1O` (centres undefined): the TGI worked out at 28.3 µM in the assay with PC-3 prostate; 18.2 µM with HCC-2998 colon; 25.8 µM in the assay on SN12C renal; 17.9 µM with NCI-H23 lung; 72.4 µM with T-47D breast; 11.6 µM with HS 578T breast. Besides, the TGI in the assay on UACC-62 melanoma was 4.99 µM; with HCT-116 colon it was 29.1 µM; in the assay with HL-60(TB) leukemia it was 14.5 µM; in the assay with 786-0 renal, 30.4 µM.
Regarding `O=C(CCC(NC(=O)OCc1ccccc1)C(=O)OCc1ccccc1)Nc1cccc(OCc2ccccc2)c1` (centres undefined), the TGI is 35.9 µM in the assay with PC-3 prostate; over 100 µM in the assay with HCC-2998 colon; 46 µM with SN12C renal; 57.1 µM with NCI-H23 lung; over 100 µM in the assay with T-47D breast; 39.4 µM in the assay with HS 578T breast. Moreover, the TGI is over 100 µM in the assay with UACC-62 melanoma, 36.4 µM in the assay with HCT-116 colon, 37.6 µM with HL-60(TB) leukemia and 33.2 µM in the assay with 786-0 renal.
As for `Oc1ccc(Nc2nc(Cl)c3[nH]cnc3n2)cc1`, the TGI in the assay on PC-3 prostate, in the assay with HCC-2998 colon, in the assay with SN12C renal, with NCI-H23 lung, in the assay on T-47D breast and with HS 578T breast was over 100 µM in each case. Moreover, the TGI in the assay on UACC-62 melanoma, in the assay on HCT-116 colon, with HL-60(TB) leukemia and in the assay with 786-0 renal was over 100 µM in each case.
On to `C#CC(O)/C=C/C(O)CCCC(O)CC#CC(O)C#CCCCCC(O)/C=C/CCCC(=O)CCCCCCCCCCCCCCCC(O)C(O)C#CC(=O)O` (centres undefined), for which the TGI in the assay with PC-3 prostate, in the assay with HCC-2998 colon, in the assay with SN12C renal, in the assay with NCI-H23 lung, with T-47D breast and in the assay with HS 578T breast was over 25 µM throughout. Also, the TGI in the assay on UACC-62 melanoma, in the assay on HCT-116 colon, in the assay with HL-60(TB) leukemia and with 786-0 renal was over 25 µM throughout.
Regarding `O=C(Oc1cncc(Cl)c1)c1cc2ccccc2sc1=O`, the TGI in the assay with PC-3 prostate, in the assay with HCC-2998 colon, in the assay with SN12C renal, in the assay on NCI-H23 lung, in the assay on T-47D breast and with HS 578T breast was over 100 µM in each case. The TGI in the assay on UACC-62 melanoma, with HCT-116 colon, in the assay with HL-60(TB) leukemia and with 786-0 renal was over 100 µM each time.
In the case of `C#CCn1c(I)cc2c(c1=O)COC(=O)[C@]2(O)CC`, the TGI in the assay on PC-3 prostate, in the assay with HCC-2998 colon, with SN12C renal, in the assay with NCI-H23 lung, in the assay on T-47D breast and with HS 578T breast was over 100 µM in each case. In addition, the TGI with UACC-62 melanoma, in the assay with HCT-116 colon, in the assay with HL-60(TB) leukemia and with 786-0 renal was over 100 µM throughout.
With `COc1ccc(C2C3=C(COC3=O)Oc3cc4c(cc32)OCO4)cc1OC` (centres undefined), the TGI in the assay with PC-3 prostate is over 31.3 µM; with HCC-2998 colon, 4.85 µM; with SN12C renal, over 100 µM; in the assay with NCI-H23 lung, over 100 µM; in the assay with T-47D breast it was over 100 µM; with HS 578T breast it was 6.14 µM. For the same molecule, the TGI in the assay with UACC-62 melanoma is over 100 µM; in the assay with HCT-116 colon, over 86.1 µM; with HL-60(TB) leukemia, 0.804 µM; in the assay on 786-0 renal, over 100 µM.
Regarding `CCOP(=O)(OCC)C(c1ccccc1)N(C(=O)NC(F)(F)F)c1ccc(C)cc1` (centres undefined), the TGI with PC-3 prostate, with HCC-2998 colon, in the assay with SN12C renal, with NCI-H23 lung, with T-47D breast and with HS 578T breast was over 100 µM in each case. Further, the TGI with UACC-62 melanoma, in the assay on HCT-116 colon, with HL-60(TB) leukemia and with 786-0 renal was over 100 µM in each case.
On to `COC(=O)c1ccc(C)cc1C1CN=NC12Cc1cccc(C)c1C2=O` (centres undefined), for which the TGI in the assay on PC-3 prostate is 70.6 µM; with HCC-2998 colon it was over 100 µM; in the assay with SN12C renal, over 100 µM; in the assay on NCI-H23 lung it was over 100 µM; in the assay with T-47D breast, 85.8 µM; with HS 578T breast, over 100 µM. For the same molecule, the TGI in the assay with UACC-62 melanoma is 53.1 µM; in the assay on HCT-116 colon, over 100 µM; with HL-60(TB) leukemia it was 49.8 µM; in the assay on 786-0 renal, over 100 µM.
Consider `CC(C)=CC(=O)OC1C2C(C)=CC(=O)C(O)C2(C)C2C3(O)OCC24C(CC(=O)OC14)C(C)C3O` (centres undefined), for which the TGI is 0.0129 µM in the assay on PC-3 prostate; 0.0532 µM and 0.0278 µM and 0.0513 µM with HCC-2998 colon; 0.245 µM and 0.089 µM and 0.327 µM with SN12C renal; 0.0108 µM in the assay on T-47D breast; 0.00523 µM in the assay with HS 578T breast; 0.0313 µM and 0.0404 µM with UACC-62 melanoma. In addition, the TGI is 0.0172 µM and 0.0807 µM in the assay on HCT-116 colon; 0.0834 µM with 786-0 renal. The GI50 in the assay on HCC-2998 colon is 0.0229 µM; with SN12C renal, 0.0133 µM and 0.0406 µM; with NCI-H23 lung, 0.02 µM; with UACC-62 melanoma it was 0.0204 µM; in the assay with HCT-116 colon it was 0.02 µM; with HL-60(TB) leukemia, 0.02 µM.
In the case of `COC1(C)CCC(OS(C)(=O)=O)CO1` (centres undefined), the TGI with PC-3 prostate, in the assay with HCC-2998 colon, with SN12C renal, with NCI-H23 lung, in the assay with T-47D breast and in the assay with HS 578T breast was over 100 µM in each case. Moreover, the TGI in the assay with UACC-62 melanoma, in the assay on HCT-116 colon, in the assay with HL-60(TB) leukemia and with 786-0 renal was over 100 µM each time.
For `CCOC(=O)c1c(SC(=O)c2ccc(Cl)cc2)n(-c2ccccc2)c(=S)n(-c2ccccc2)c1=O`, the TGI in the assay with PC-3 prostate, with HCC-2998 colon, in the assay on SN12C renal, in the assay with NCI-H23 lung, in the assay on T-47D breast and in the assay with HS 578T breast was over 100 µM throughout. In addition, the TGI in the assay on UACC-62 melanoma, in the assay on HCT-116 colon, in the assay with HL-60(TB) leukemia and with 786-0 renal was over 100 µM in each case.
Consider `Cc1cc2ccccc2n2c1nc1ccc(O)cc12`, for which the TGI in the assay with PC-3 prostate, with HCC-2998 colon, in the assay on SN12C renal, in the assay with NCI-H23 lung, with T-47D breast and in the assay with HS 578T breast was over 10 µM throughout. The TGI in the assay on UACC-62 melanoma, in the assay with HCT-116 colon, in the assay with HL-60(TB) leukemia and in the assay on 786-0 renal was over 10 µM each time.
As for `O=C(NNC(=O)c1ccncc1)C(=O)Nc1cc(Cl)c(Cl)cc1Cl`, the TGI was over 100 µM with PC-3 prostate; 57.8 µM in the assay with HCC-2998 colon; over 100 µM in the assay on SN12C renal; over 100 µM with NCI-H23 lung; over 100 µM in the assay on T-47D breast; over 100 µM in the assay with HS 578T breast. Further, the TGI in the assay with UACC-62 melanoma, in the assay on HCT-116 colon, in the assay with HL-60(TB) leukemia and in the assay on 786-0 renal was over 100 µM each time.
Take `C[C@]12CC[C@H]3[C@@H](CC=C4C[C@@H](O)CC[C@@]43C)[C@@H]1C/C(=C\c1ccc([N+](=O)[O-])cc1)[C@@H]2O`: the TGI with PC-3 prostate was 33.5 µM; in the assay on HCC-2998 colon it was 30.4 µM; in the assay on SN12C renal, 22.9 µM; in the assay on NCI-H23 lung, 51.7 µM; in the assay with T-47D breast it was 29.5 µM; with HS 578T breast it was over 100 µM. Further, the TGI in the assay on UACC-62 melanoma is 34.1 µM; with HCT-116 colon, 14 µM; with HL-60(TB) leukemia, 80.9 µM; with 786-0 renal it was 22.8 µM.
